Measurements from PMC2364081, “Antagonists of retinoic acid receptors (RARs) are potent growth inhibitors of prostate carcinoma cells” (British Journal of Cancer, 2001).
Like-named read-outs stand apart in the source and are kept apart here. Blank lines part the entries; values can stand above or below the molecule they belong to.

Legend:
[1] = tested on: LNCaP, PC3 and DU145 cells; assay: Plate colony formation assay, stated over the three serum-free grown lines; format: cell-based, human
Source text: (§1) Prostate cancer is one of the most common cancers in European and American males and has a high mortality rate (Landis et al, 1998; Rosenthal, 1998). Early disease is managed conservatively in Europe although in selected patients surgery is curative. In advanced disease, androgen ablation can produce symptomatic improvement, but the tumour often re-emerges in an androgen- independent and incurable form. One proposed treatment for androgen-independent prostate carcinoma is differentiation ther- apy, in which agents such as all-trans-retinoic acid (ATRA), 9-cis- retinoic acid and 1, 25-dihydroxyvitamin D3 (D3 ) are used to induce growth arrest, differentiation and sometimes apoptosis of the tumour cells (Liang et al, 1999; de Vos et al, 1997; Skowronski et al, 1994; Hedlund et al, 1997). ATRA and synthetic analogues exert their biological effects by binding to two families of retinoid receptors, […]. These are ligand-dependent transcription factors of the steroid/thyroid hormone nuclear receptor superfamily (Chambon 1994; Boehm et al, 1995). Activated RARs bind to retinoic acid-responsive elements (RAREs) in the promoters of genes and thus regulate gene expression. They also antagonize the activity of the tran- scription factor AP1 and thereby down-regulate the expression of some AP1-activated genes (Nagpal et al, 1995). One approach to unravelling the contributions of RAR sub-types to these actions has been the development of synthetic retinoids with selective activities at individual RARs and RXRs. For example, the diaryl- acetylenic retinoids allow separation of transactivation and AP1 antagonism functions at RAR (Nagpal et al, 1995). Recently, compounds that are selective for particular RAR sub-types have been synthesized: these include both agonists and antagonists (Chandraratna, 1995; Teng et al, 1999; Johnson et al, 1999). The functional selectivity of these compounds may open the way to achieving differentiation or apoptosis of tumour cells with minimal systemic side effects (Chandraratna, 1995). Cell lines that are commonly used in the evaluation of investiga- tional agents for prostate cancer include LNCaP, DU-145 and PC- 3. […] These lines are relatively insensitive to growth inhibition and induction of apoptosis by ATRA and by synthetic agonists. […] Fenretinide (4HPR) induces apoptosis of LNCaP and of PC-3 cells at 1-5 M and 25 µM, respectively (Pienta et al, 1993; Heish and Wu, 1997). Pfahl and colleagues examined the growth inhibitory effects of a panel of receptor-selective retinoids against DU145 and PC-3 cells and achieved complete growth inhibition and induction of apoptosis between 1 M and 10 M (Lu et al, 1999). […] Antagonists of retinoic acid receptors (RARs) are potent growth inhibitors of prostate carcinoma cells LA Hammond1 , CH Van Krinks2 , J Durham2 , SE Tomkins2 , RD Burnett3 , EL Jones1 , RAS Chandraratna3 and G Brown2 Divisions of 1 Cancer Studies and of 2 Immunity and Infection, University of Birmingham Medical School, Edgbaston, Birmingham B15 2TT, UK and 3 Retinoid Research, Allergan Inc., Irvine, California, USA Summary Novel synthetic antagonists of retinoic acid receptors (RARs) have been developed. To avoid interference by serum retinoids when testing these compounds, we established serum-free grown sub-lines (>3 years) of the prostate carcinoma lines LNCaP, PC3 and DU145. […] A component(s) of serum and of LNCaP-conditioned medium diminishes the activity of antagonists: this factor is not the most likely candidates IGF-1 and EGF. In vitro studies of RAR antagonists together with data from RAR-null mice lead to the hypothesis that RAR-regulated gene transcription is necessary for the survival and maintenance of prostate epithelium. […]

FBS-grown DU145 cells = assay: Plate colony formation assay, FBS-grown DU145; format: cell-based, human; set-up: dose or concentration left out as unconfirmed; conditions: ATRA
Source text: (§2) Prostate cancer is one of the most common cancers in European and American males and has a high mortality rate (Landis et al, 1998; Rosenthal, 1998). Early disease is managed conservatively in Europe although in selected patients surgery is curative. In advanced disease, androgen ablation can produce symptomatic improvement, but the tumour often re-emerges in an androgen- independent and incurable form. One proposed treatment for androgen-independent prostate carcinoma is differentiation ther- apy, in which agents such as all-trans-retinoic acid (ATRA), 9-cis- retinoic acid and 1, 25-dihydroxyvitamin D3 (D3 ) are used to induce growth arrest, differentiation and sometimes apoptosis of the tumour cells (Liang et al, 1999; de Vos et al, 1997; Skowronski et al, 1994; Hedlund et al, 1997). ATRA and synthetic analogues exert their biological effects by binding to two families of retinoid receptors, […]. These are ligand-dependent transcription factors of the steroid/thyroid hormone nuclear receptor superfamily (Chambon 1994; Boehm et al, 1995). Activated RARs bind to retinoic acid-responsive elements (RAREs) in the promoters of genes and thus regulate gene expression. They also antagonize the activity of the tran- scription factor AP1 and thereby down-regulate the expression of some AP1-activated genes (Nagpal et al, 1995). […]

LNCaP cells = conditions: cited from earlier work
PC-3 and DU-145 cells = tested on: PC-3 and DU-145 cells; set-up: method as in Lu et al, 1997 and 1999; dose or concentration left out as unconfirmed; conditions: ref Lu et al, 1997 and 1999; cited from earlier work
PC-3 cells = tested on: PC-3 cells; set-up: method as in Pienta et al, 1993; Heish and Wu, 1997; conditions: ref Pienta et al, 1993; Heish and Wu, 1997; cited from earlier work
RARα [2] = target: T1, RARα (Homo sapiens, UniProt P10276); assay: Binding to baculovirus-expressed RARα; set-up: made in house; conditions: baculovirus-expressed receptor
T1 sequence (P10276 1-462): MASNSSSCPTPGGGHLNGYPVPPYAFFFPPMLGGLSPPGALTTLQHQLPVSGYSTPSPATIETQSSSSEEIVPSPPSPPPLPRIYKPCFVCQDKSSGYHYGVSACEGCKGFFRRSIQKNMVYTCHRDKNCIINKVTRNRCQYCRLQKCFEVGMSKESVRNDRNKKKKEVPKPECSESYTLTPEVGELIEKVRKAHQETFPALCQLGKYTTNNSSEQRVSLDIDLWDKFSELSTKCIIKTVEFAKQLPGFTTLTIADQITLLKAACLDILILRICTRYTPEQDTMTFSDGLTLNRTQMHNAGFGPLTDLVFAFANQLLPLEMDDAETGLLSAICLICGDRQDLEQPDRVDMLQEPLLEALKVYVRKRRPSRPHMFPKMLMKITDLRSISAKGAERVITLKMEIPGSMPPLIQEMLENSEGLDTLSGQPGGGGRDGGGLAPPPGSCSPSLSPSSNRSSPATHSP
Source text: as §1

RARβ [3] = target: T2, RARβ (Homo sapiens, UniProt P10826); assay: Binding to baculovirus-expressed RARβ; set-up: made in house; conditions: baculovirus-expressed receptor
T2 sequence (P10826 1-455): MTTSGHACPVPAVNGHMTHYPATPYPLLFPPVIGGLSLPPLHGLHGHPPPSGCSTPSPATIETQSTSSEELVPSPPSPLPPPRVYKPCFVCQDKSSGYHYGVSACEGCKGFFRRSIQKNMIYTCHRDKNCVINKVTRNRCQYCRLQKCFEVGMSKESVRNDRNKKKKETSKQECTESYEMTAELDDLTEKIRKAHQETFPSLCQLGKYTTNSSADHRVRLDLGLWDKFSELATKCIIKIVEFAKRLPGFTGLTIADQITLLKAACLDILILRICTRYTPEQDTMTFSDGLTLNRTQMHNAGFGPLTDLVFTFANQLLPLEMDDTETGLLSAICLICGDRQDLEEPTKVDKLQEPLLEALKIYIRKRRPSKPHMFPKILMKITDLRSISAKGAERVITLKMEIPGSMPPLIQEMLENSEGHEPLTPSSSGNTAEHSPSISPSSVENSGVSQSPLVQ
Source text: as §1

RARγ [4] = target: T3, RARγ (Homo sapiens, UniProt P13631); assay: Binding to baculovirus-expressed RARγ; set-up: made in house; conditions: baculovirus-expressed receptor
T3 sequence (P13631 1-454): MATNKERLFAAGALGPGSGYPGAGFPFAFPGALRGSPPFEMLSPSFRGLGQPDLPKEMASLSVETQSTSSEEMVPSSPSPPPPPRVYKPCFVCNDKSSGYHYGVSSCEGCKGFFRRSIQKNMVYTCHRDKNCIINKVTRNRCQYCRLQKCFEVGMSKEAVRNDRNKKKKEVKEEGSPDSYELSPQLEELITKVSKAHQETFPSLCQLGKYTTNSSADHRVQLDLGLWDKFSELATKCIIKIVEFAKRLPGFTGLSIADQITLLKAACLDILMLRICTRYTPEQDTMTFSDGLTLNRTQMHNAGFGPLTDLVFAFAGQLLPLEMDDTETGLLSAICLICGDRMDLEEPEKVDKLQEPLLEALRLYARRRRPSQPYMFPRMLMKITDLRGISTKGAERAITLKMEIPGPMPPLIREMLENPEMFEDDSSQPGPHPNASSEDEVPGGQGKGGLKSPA
Source text: as §1

RARα [5] = target: T1, RARα; assay: Transactivation by RARα in doubly transfected CV-1 cells (MTV-TREp-LUC reporter); format: cell-based; set-up: expressed in transfected cells; host or cells: CV-1 cells
Source text: (§3) Prostate cancer is one of the most common cancers in European and American males and has a high mortality rate (Landis et al, 1998; Rosenthal, 1998). Early disease is managed conservatively in Europe although in selected patients surgery is curative. In advanced disease, androgen ablation can produce symptomatic improvement, but the tumour often re-emerges in an androgen- independent and incurable form. One proposed treatment for androgen-independent prostate carcinoma is differentiation ther- apy, in which agents such as all-trans-retinoic acid (ATRA), 9-cis- retinoic acid and 1, 25-dihydroxyvitamin D3 (D3 ) are used to induce growth arrest, differentiation and sometimes apoptosis of the tumour cells (Liang et al, 1999; de Vos et al, 1997; Skowronski et al, 1994; Hedlund et al, 1997). ATRA and synthetic analogues exert their biological effects by binding to two families of retinoid receptors, the RARs (RAR, RAR and RAR) and the RXRs (RXR, RXR and RXR). These are ligand-dependent transcription factors of the steroid/thyroid hormone nuclear receptor superfamily (Chambon 1994; Boehm et al, 1995). Activated RARs bind to retinoic acid-responsive elements (RAREs) in the promoters of genes and thus regulate gene expression. They also antagonize the activity of the tran- scription factor AP1 and thereby down-regulate the expression of some AP1-activated genes (Nagpal et al, 1995). One approach to unravelling the contributions of RAR sub-types to these actions has been the development of synthetic retinoids with selective activities at individual RARs and RXRs. For example, the diaryl- acetylenic retinoids allow separation of transactivation and AP1 antagonism functions at RAR (Nagpal et al, 1995). Recently, compounds that are selective for particular RAR sub-types have been synthesized: these include both agonists and antagonists (Chandraratna, 1995; Teng et al, 1999; Johnson et al, 1999). The functional selectivity of these compounds may open the way to achieving differentiation or apoptosis of tumour cells with minimal systemic side effects (Chandraratna, 1995). […]

RARβ [6] = target: T2, RARβ; assay: Transactivation by RARβ in doubly transfected CV-1 cells (MTV-TREp-LUC reporter); format: cell-based; set-up: expressed in transfected cells; host or cells: CV-1 cells
Source text: as §3

RARγ [7] = target: T3, RARγ; assay: Transactivation by RARγ in doubly transfected CV-1 cells (MTV-TREp-LUC reporter); format: cell-based; set-up: expressed in transfected cells; host or cells: CV-1 cells
Source text: as §2

breast carcinoma lines = tested on: breast carcinoma lines; set-up: method as in Fanjul et al, 1998; conditions: low serum (0.5%); ref Fanjul et al, 1998; cited from earlier work
LNCaP ITS+ cells = assay: Plate colony formation (clonal proliferation) assay, serum-free (ITS+)-grown LNCaP; format: cell-based, human; conditions: LNCaP, serum-free (ITS+), 14 days
Source text: as §1

PC3 ITS+ cells = assay: Plate colony formation assay, serum-free (ITS+)-grown PC3; format: cell-based, human; conditions: 14 days
Source text: as §3

DU145 ITS+ cells = assay: Plate colony formation assay, serum-free (ITS+)-grown DU145; format: cell-based, human; conditions: 14 days
Source text: as §3

SMILES: CC1=C(/C=C/C(C)=C/C=C/C(C)=C/C(=O)O)C(C)(C)CCC1 [ATRA, all-trans retinoic acid]
effect on colony formation ([1]; 100 nM, three cell lines, ITS+ and FBS cells): little effect
reduction in colony formation (FBS-grown DU145 cells): < 1%
concentration inducing apoptosis (LNCaP cells; ref Gao et al, 1999): 2 µM
growth inhibition and apoptosis (PC-3 and DU-145 cells): neither inhibits the growth nor induces apoptosis

SMILES: CC1=C(/C=C/C(C)=C/C=C/C(C)=C/C(=O)Nc2ccc(O)cc2)C(C)(C)CCC1 [Fenretinide]
concentration inducing apoptosis (LNCaP cells; ref Pienta et al, 1993, Heish and Wu, 1997): 1 to 5 µM
concentration inducing apoptosis (PC-3 cells): 25 µM

Kd (RARα [2]): 616 nM
Kd (RARβ [3]): 41 nM
Kd (RARγ [4]): 57 nM
EC50 (RARα [5]): > 1000 nM
EC50 (RARβ [6]): 18 nM
EC50 (RARγ [7]): 42 nM
SMILES: CC1(C)CCSc2ccc(C#Cc3ccc(C(=O)O)cn3)cc21 [AGN190299]

SMILES: COCCOCOc1ccc(C(=O)/C=C/c2ccc(C(=O)O)cc2)cc1C12CC3CC(CC(C3)C1)C2 [MX781]
concentration abolishing cell proliferation (breast carcinoma lines): > 1 µM

IC50 (LNCaP ITS+ cells): 99 nM
IC50 (PC3 ITS+ cells): 104 nM
IC50 (DU145 ITS+ cells): 88 nM
IC50 ([1]; stated over all three serum-free grown lines, read-out: concentration inhibiting colony formation by 50% (IC50)): ~100 nM
Kd (RARα [2]): 300 nM
Kd (RARβ [3]): 6 nM
Kd (RARγ [4]): 70 nM
SMILES: Cc1ccc(C2=CCC(C)(C)c3ccc(N=Nc4ccc(C(=O)O)cc4F)cc32)cc1 [AGN194431]
